# Patent US20050215614A1, “Substituted indoles and their use as hcv inhibitors” (Rigel Pharmaceuticals, Inc., priority 2003, published 2005)
# Test system: HCV replicon
# Test: HCV Replicon Assay (luciferase, 5-2 Luc replicon cells)
# Type: cell-based
# Details: 5-2 Luc replicon cells (Huh7), 24-48 hours with compound, luciferase counts
# Procedure: Actively dividing 5-2 Luc replicon cells were seeded at the density of 5000-7500 cells/well in the volume of 90 μl/well into 96 well plate(s). The cells were then incubated at 37° C. and 5% CO2 for 24 hours. The 5-2 cells are replicon cells licensed from Ralf Bartenschlager (Germany) and have a self-replicating RNA molecule in the Huh7 cell; the RNA contains HCV non-structural proteins that make the self-replication possible.
# Various concentrations of compounds (in the volume of 10 μl) were added into each well 24 hours after seeding the cells. The cells were incubated for another 24-48 hours before luciferase assay.
# After incubating the 5-2 Luc replicon cells with the compounds for 24-48 hours, media were aspirated from each well and Bright-Glo (Promega) luciferase assay reagents were added to each well according to the manufacturer′s manual. Briefly, the Bright-Glo reagent was diluted with equal volume of PBS and an aliquote (100 μl) was added to each well. After incubating the plate at room temperature for 5 minutes, luciferase counts were taken using a luminometer.
row,Structure (SMILES),Activity (concentration of inhibitory activity)
1,"Cc1cc2cc(NC(=O)C3CCCC3)ccc2n1C(=O)c1c(F)cccc1F [Compound 16d-1, 5-Cyclopentanecarbonylamino-1-(2′,6′-difluorobenzoyl)-2-methylindole]",b (“b” indicates activity is at a concentration greater than 10 micromolar)
2,"Cc1cc2cc(NC(=O)C3CCC3)ccc2n1C(=O)c1c(F)cccc1F [Compound 16d-2, 5-Cyclobutanecarbonylamino-1-(2′,6′-difluorobenzoyl)-2-methylindole]",b (“b” indicates activity is at a concentration greater than 10 micromolar)
3,"Cc1cc2cc(NC(=O)C3CC3)ccc2n1C(=O)c1c(F)cccc1F [Compound 16d-3, 5-Cyclopropanecarbonylamino-1-(2′,6′-difluorobenzoyl)-2-methylindole]",b (“b” indicates activity is at a concentration greater than 10 micromolar)
4,"Cc1cc2cc(NC(=O)C3CCCC3)ccc2n1C(=O)c1c(F)cccc1Cl [Compound 16e-1, 1-(2′-Chloro-6′-fluorobenzoyl)-5-cyclopentanecarbonylamino-2-methylindole]",a (“a” indicates inhibitory activity at a concentration of less than 10 micromolar)
5,"Cc1cc2cc(NC(=O)C3CCCCC3)ccc2n1C(=O)c1c(F)cccc1Cl [Compound 16e-2, 1-(2′-Chloro-6′-fluorobenzoyl)-5-Cyclohexanecarbonylamino-2-methylindole]",a (“a” indicates inhibitory activity at a concentration of less than 10 micromolar)
6,"Cc1cc2cc(NC(=O)C3CCC3)ccc2n1C(=O)c1c(F)cccc1Cl [Compound 16e-3, 1-(2′-Chloro-6′-fluorobenzoyl)-5-cyclobutanecarbonylamino-2-methylindole]",a (“a” indicates inhibitory activity at a concentration of less than 10 micromolar)
7,"Cc1cc2cc(NC(=O)C3CC3)ccc2n1C(=O)c1c(F)cccc1Cl [Compound 16e-4, 1-(2′-Chloro-6′-fluorobenzoyl)-5-cyclopropanecarbonylamino-2-methylindole]",a (“a” indicates inhibitory activity at a concentration of less than 10 micromolar)
8,"Cc1cc2cc(NC(=O)C3CCC(=O)C3)ccc2n1C(=O)c1c(F)cccc1Cl (centres unmarked) [Compound 16e-5, 1-(2′-Chloro-6′-fluorobenzoyl)-5-(3-oxo-1-cyclopentanecarbonyl)amino-2-methylindole]",a (“a” indicates inhibitory activity at a concentration of less than 10 micromolar)
9,"Cc1cccc(C)c1C(=O)n1c(C)cc2cc(NC(=O)C3CCCC3)ccc21 [Compound 16f-1, 5-Cyclopentanecarbonylamino-1-(2′,6′-dimethylbenzoyl)-2-methylindole]",a (“a” indicates inhibitory activity at a concentration of less than 10 micromolar)
10,"Cc1cccc(C)c1C(=O)n1c(C)cc2cc(NC(=O)C3CCCCC3)ccc21 [Compound 16f-2, 5-Cyclohexanecarbonylamino-1-(2′,6′-dimethylbenzoyl)-2-methylindole]",a (“a” indicates inhibitory activity at a concentration of less than 10 micromolar)
11,"Cc1cccc(C)c1C(=O)n1c(C)cc2cc(NC(=O)C3CCC3)ccc21 [Compound 16f-3, 5-Cyclobutanecarbonylamino-1-(2′,6′-dimethylbenzoyl)-2-methylindole]",a (“a” indicates inhibitory activity at a concentration of less than 10 micromolar)
12,"Cc1cccc(C)c1C(=O)n1c(C)cc2cc(NC(=O)C3CC3)ccc21 [Compound 16f-4, 5-Cyclopropanecarbonylamino-1-(2′,6′-dimethylbenzoyl)-2-methylindole]",a (“a” indicates inhibitory activity at a concentration of less than 10 micromolar)
13,"Cc1cccc(C)c1C(=O)n1c(C)cc2cc(NC(=O)C3CCC(=O)C3)ccc21 (centres unmarked) [Compound 16f-5, 1-(2′,6′-Dimethylbenzoyl)-5-(3-oxo-1-cyclopentanecarbonyl)amino-2-methylindole]",a (“a” indicates inhibitory activity at a concentration of less than 10 micromolar)
14,"Cc1cc2cc(NC(=O)C3CCCC3)ccc2n1C(=O)c1cc(Cl)nc(Cl)c1 [Compound 16g-1, 5-Cyclopentanecarbonylamino-l-(2′,6′-dichloro-4′-pyridylcarbonyl)-2-methylindole]",a (“a” indicates inhibitory activity at a concentration of less than 10 micromolar)
15,"Cc1cc2cc(NC(=O)C3CC3)ccc2n1C(=O)c1cc(Cl)nc(Cl)c1 [Compound 16g-2, 5-Cyclopropanecarbonylamino-1-(2′,6′-dichloro-4′-pyridylcarbonyl)-2-methylindole]",a (“a” indicates inhibitory activity at a concentration of less than 10 micromolar)
16,"Cc1cc2cc(NC(=O)C3CCC(=O)C3)ccc2n1C(=O)c1cc(Cl)nc(Cl)c1 (centres unmarked) [Compound 16g-3, 1-(2′,6′-Dichloro-4-pyridylcarbonyl)-5-(3-oxo-1-cyclopentanecarbonyl)amino-2-methylindole]",a (“a” indicates inhibitory activity at a concentration of less than 10 micromolar)
17,"Cc1cc2cc(NC(=O)C3CCCC3)ccc2n1C(=O)c1ccccc1Cl [Compound 18, 1-(2′-Chlorobenzoyl)-5-cyclopentanecarbonylamino-2-methylindole]",b (“b” indicates activity is at a concentration greater than 10 micromolar)
18,"COc1ccccc1C(=O)n1c(C)cc2cc(NC(=O)C3CCCC3)ccc21 [Compound 19, 1-(o-Anisoyl)-5-cyclopentanecarbonylamino-2-methylindole]",a (“a” indicates inhibitory activity at a concentration of less than 10 micromolar)
19,CC(C)(C)c1cc2cc(NC(=O)CCN3CCCCC3)ccc2[nH]1 [Compound 213],b (“b” indicates activity is at a concentration greater than 10 micromolar)
20,CC(=O)N1CCC(C(=O)Nc2ccc3[nH]c(C(C)(C)C)cc3c2)CC1 [Compound 214],b (“b” indicates activity is at a concentration greater than 10 micromolar)
21,CC(C)(C)c1cc2cc(NC(=O)CCc3c[nH]c4ccccc34)ccc2[nH]1 [Compound 215],b (“b” indicates activity is at a concentration greater than 10 micromolar)
22,CC(C)(C)c1cc2cc(NC(=O)Cc3ccc4c(c3)OCO4)ccc2[nH]1 [Compound 216],b (“b” indicates activity is at a concentration greater than 10 micromolar)
23,CC(C)(C)c1cc2cc(NC(=O)Cc3cccnc3)ccc2[nH]1 [Compound 217],b (“b” indicates activity is at a concentration greater than 10 micromolar)
24,CC(=O)NCCC(=O)Nc1ccc2[nH]c(C(C)(C)C)cc2c1 [Compound 218],b (“b” indicates activity is at a concentration greater than 10 micromolar)
25,CC(C)(C)c1cc2cc(NC(=O)CC(c3ccccc3)c3ccccc3)ccc2[nH]1 [Compound 219],b (“b” indicates activity is at a concentration greater than 10 micromolar)
26,CC(C)(C)c1cc2cc(NC(=O)Cc3ccc(F)cc3)ccc2[nH]1 [Compound 220],b (“b” indicates activity is at a concentration greater than 10 micromolar)
